From patent US20260317324A1, “BIFUNCTIONAL COMPOUNDS FOR DEGRADING BRAF VIA UBIQUITIN PROTEOSOME PATHWAY” (Nurix Therapeutics, Inc., priority 2023, published 2026)

How the values were obtained:
Type in all cases: cell-based
BRAF V600E = molecular target: T1, BRAF V600E (Homo sapiens, UniProt P15056, V600E); assay: BRAF HiBiT degradation assay, C-terminal HiBiT-tagged BRAF V600E A375 cells (clone 1F10), Nano-Glo HiBiT Lytic assay; conditions: for Dmax: A-375
T1 construct: endogenous C-terminal HiBiT fusion tag on BRAF V600E allele; endogenous in cells; host or cells: A375 clone 1F10 (CRISPR-Cas9 knock-in of the HiBiT tag; parental A375 from ATCC)
T1 sequence (P15056 whole entry V600E, the tested form may be a part): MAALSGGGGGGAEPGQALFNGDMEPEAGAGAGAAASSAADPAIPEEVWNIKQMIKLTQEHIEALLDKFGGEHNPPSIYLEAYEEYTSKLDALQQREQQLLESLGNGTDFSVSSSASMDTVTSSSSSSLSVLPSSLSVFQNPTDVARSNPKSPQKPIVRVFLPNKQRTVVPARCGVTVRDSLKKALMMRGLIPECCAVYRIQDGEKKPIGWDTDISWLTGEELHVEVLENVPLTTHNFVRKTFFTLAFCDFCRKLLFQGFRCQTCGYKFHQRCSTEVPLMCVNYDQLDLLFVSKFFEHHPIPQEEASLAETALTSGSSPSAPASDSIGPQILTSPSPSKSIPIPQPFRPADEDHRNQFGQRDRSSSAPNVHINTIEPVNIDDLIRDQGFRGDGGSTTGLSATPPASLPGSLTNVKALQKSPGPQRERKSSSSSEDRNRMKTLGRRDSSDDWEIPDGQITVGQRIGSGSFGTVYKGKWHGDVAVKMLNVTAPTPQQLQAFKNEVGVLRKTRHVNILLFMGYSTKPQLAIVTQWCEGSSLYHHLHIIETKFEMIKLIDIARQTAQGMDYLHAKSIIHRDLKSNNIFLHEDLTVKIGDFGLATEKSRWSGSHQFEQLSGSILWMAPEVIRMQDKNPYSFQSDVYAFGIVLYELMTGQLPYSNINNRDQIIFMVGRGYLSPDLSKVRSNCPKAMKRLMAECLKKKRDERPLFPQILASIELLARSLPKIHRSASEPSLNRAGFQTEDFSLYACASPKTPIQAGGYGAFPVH
Procedure, shortened: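 Luminescence from the Nano-Glo HiBiT lytic read-out gave % BRAF V600E remaining versus DMSO-treated tagged cells, with untagged A375 as background. Clone 1F10 cells (10,000/well, 24 h pre-culture) received compound at 1 μM–0.01 nM in half-log steps, 0.2% DMSO; curve fits gave DC50 at Y=50, plus observed Dmax.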

BRAF G466V = molecular target: T2, BRAF G466V (Homo sapiens, UniProt P15056, G466V); assay: BRAF HiBiT degradation assay, C-terminal HiBiT-tagged BRAF G466V overexpressed in HCT-116 BRAF−/− cells (clone 8), Nano-Glo HiBiT Lytic assay
T2 construct: Horizon Discovery (HCT-116 BRAF−/− cells); host or cells: HCT-116 BRAF−/− cells, clone 8, lentiviral transduction
T2 sequence (P15056 whole entry G466V): as the sequence (P15056 whole entry V600E, the tested form may be a part) above, with G466V, E600V counted along it
Procedure, shortened: (§1)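 Degradation was read by Nano-Glo HiBiT lytic luminescence, normalised to DMSO-treated tagged cells with wildtype HCT-116 as background. Test cells were lentiviral clones of HCT-116 BRAF−/− carrying HiBiT-tagged mutants in RPMI/10% FBS, given compound at 0.01 nM–1 μM in duplicate. Outputs are the curve-fitted concentration giving 50% degradation and the maximal observed degradation.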

BRAF G469A = molecular target: T3, BRAF G469A (Homo sapiens, UniProt P15056, G469A); assay: BRAF HiBiT degradation assay, C-terminal HiBiT-tagged BRAF G469A overexpressed in HCT-116 BRAF−/− cells (clone 34), Nano-Glo HiBiT Lytic assay
T3 construct: Horizon Discovery (HCT-116 BRAF−/− cells); host or cells: HCT-116 BRAF−/− cells, clone 34, lentiviral transduction
T3 sequence (P15056 whole entry G469A): as the sequence (P15056 whole entry V600E, the tested form may be a part) above, with G469A, E600V counted along it
Procedure, shortened: as §1

BRAF D594G = molecular target: T4, BRAF D594G (Homo sapiens, UniProt P15056, D594G); assay: BRAF HiBiT degradation assay, C-terminal HiBiT-tagged BRAF D594G overexpressed in HCT-116 BRAF−/− cells (clone 63), Nano-Glo HiBiT Lytic assay
T4 construct: Horizon Discovery (HCT-116 BRAF−/− cells); host or cells: HCT-116 BRAF−/− cells, clone 63, lentiviral transduction
T4 sequence (P15056 whole entry D594G): as the sequence (P15056 whole entry V600E, the tested form may be a part) above, with D594G, E600V counted along it
Procedure, shortened: as §1

[1] = A375 (BRAF V600E, Class 1), DC50 at 50% degradation
[2] = A375 (BRAF V600E, Class 1), observed Dmax, % protein degraded relative to DMSO control
[3] = BRAF G466V (Class 3), HCT-116 BRAF−/− cells, DC50 at 50% degradation
[4] = BRAF G466V (Class 3), HCT-116 BRAF−/− cells, observed Dmax relative to DMSO control
[5] = BRAF G469A (Class 2), HCT-116 BRAF−/− cells, DC50 at 50% degradation
[6] = BRAF G469A (Class 2), HCT-116 BRAF−/− cells, observed Dmax relative to DMSO control
[7] = BRAF D594G (Class 3), HCT-116 BRAF−/− cells, DC50 at 50% degradation
[8] = BRAF D594G (Class 3), HCT-116 BRAF−/− cells, observed Dmax relative to DMSO control
[9] = A375 (BRAF V600E), DC50 at 50%: fitted conc. at Y=50
[10] = A375 (BRAF V600E), percentage protein degraded at maximal compound effect relative to DMSO
[11] = BRAF G466V, DC50 at 50%: fitted conc. at Y=50
[12] = HCT-116, BRAF G466V, percentage protein degraded at maximal compound effect relative to DMSO
[13] = Class 2, BRAF G469A, DC50 at 50%: fitted conc. at Y=50
[14] = HCT-116, Class 2, BRAF G469A, percentage protein degraded at maximal compound effect relative to DMSO
[15] = BRAF D594G, DC50 at 50%: fitted conc. at Y=50
[16] = HCT-116, BRAF D594G, percentage protein degraded at maximal compound effect relative to DMSO

Row | Structure (SMILES) | DC50 (BRAF V600E; [1]) [nM] | Dmax (BRAF V600E; [2]) [%] | DC50 (BRAF G466V; [3]) [nM] | Dmax (BRAF G466V; [4]) [%] | DC50 (BRAF G469A; [5]) [nM] | Dmax (BRAF G469A; [6]) [%] | DC50 (BRAF D594G; [7]) [nM] | Dmax (BRAF D594G; [8]) [%] | DC50 (BRAF V600E; [9]) [nM] | Dmax (BRAF V600E; [10]) [%] | DC50 (BRAF G466V; [11]) [nM] | Dmax (BRAF G466V; [12]) [%] | DC50 (BRAF G469A; [13]) [nM] | Dmax (BRAF G469A; [14]) [%] | DC50 (BRAF D594G; [15]) [nM] | Dmax (BRAF D594G; [16]) [%]
1 | CCC(C)S(=O)(=O)Nc1cc(Cl)cc(-c2cn(-c3ccc(N4CCN(CC5CCN(c6ccc([C@H]7CCC(=O)NC7=O)cc6)CC5)CC4)cc3)nc2-c2ccncc2)c1F (mixture of isomers) [Compound 330, (2RS)—N-{5-chloro-3-[1-(4-{4-[(1-{4-[(3R)-2,6-dioxopiperidin-3-yl]phenyl}piperidin-4-yl)methyl]piperazin-1-yl}phenyl)-3-(pyridin-4-yl)-1H-pyrazol-4-yl]-2-fluorophenyl}butane-2-sulfonamide] | < 10 | > 70 | < 10 | > 70 | 10 to 50 | 30 to 70 | < 10 | 30 to 70 | – | – | – | – | – | – | – | –
2 | O=C1CCC(c2ccc(N3CCC(CN4CCN(c5ccc(-n6cc(-c7cc(Cl)cc(NS(=O)(=O)N8CC[C@@H](F)C8)c7F)c(-c7ccncc7)n6)c(F)c5)CC4)CC3)nc2)C(=O)N1 (mixture of isomers) [Compound 335, (3R)—N-{5-chloro-3-[1-(4-{4-[(1-{5-[(3RS)-2,6-dioxopiperidin-3-yl]pyridin-2-yl}piperidin-4-yl)methyl]piperazin-1-yl}-2-fluorophenyl)-3-(pyridin-4-yl)-1H-pyrazol-4-yl]-2-fluorophenyl}-3-fluoropyrrolidine-1-sulfonamide] | < 10 | > 70 | < 10 | > 70 | 10 to 50 | > 70 | < 10 | > 70 | – | – | – | – | – | – | – | –
3 | O=C1CCC(c2ccc(N3CCC(CN4CCN(c5ccc(-n6cc(-c7cc(Cl)cc(NS(=O)(=O)N8CC[C@@H](F)C8)c7F)c(-c7ccncc7)n6)cc5F)CC4)CC3)nc2)C(=O)N1 (mixture of isomers) [Compound 366, (3R)—N-{5-chloro-3-[1-(4-{4-[(1-{5-[(3RS)-2,6-dioxopiperidin-3-yl]pyridin-2-yl}piperidin-4-yl)methyl]piperazin-1-yl}-3-fluorophenyl)-3-(pyridin-4-yl)-1H-pyrazol-4-yl]-2-fluorophenyl}-3-fluoropyrrolidine-1-sulfonamide] | < 10 | > 70 | < 10 | > 70 | < 10 | > 70 | < 10 | > 70 | – | – | – | – | – | – | – | –
4 | C[C@@H]1CN(c2ccc(-n3cc(-c4cc(Cl)cc(NS(=O)(=O)N5CCCC5)c4F)c(-c4ccncc4)n3)c(F)c2)C[C@@H](C)N1CC1CCN(c2ccc(C3CCC(=O)NC3=O)cn2)CC1 (mixture of isomers) [Compound 382, N-(5-chloro-3-(1-(4-((3R,5R)-4-((1-(5-((RS)-2,6-dioxopiperidin-3-yl)pyridin-2-yl)piperidin-4-yl)methyl)-3,5-dimethylpiperazin-1-yl)-2-fluorophenyl)-3-(pyridin-4-yl)-1H-pyrazol-4-yl)-2-fluorophenyl)pyrrolidine-1-sulfonamide] | < 10 | > 70 | < 10 | > 70 | 10 to 50 | > 70 | < 10 | > 70 | – | – | – | – | – | – | – | –
5 | CCCS(=O)(=O)Nc1cccc(-c2cn(-c3ccc(N4CCN(CC5CCN(c6ccc(C7CCC(=O)NC7=O)cn6)CC5)CC4)nc3)nc2-c2ccncc2)c1F (racemic) [Compound 3, Rac-N-{3-[1-(6-{4-[(1-{5-[(3R)-2,6-dioxopiperidin-3-yl]pyridin-2-yl}piperidin-4-yl)methyl]piperazin-1-yl}pyridin-3-yl)-3-(pyridin-4-yl)-1H-pyrazol-4-yl]-2-fluorophenyl}propane-1-sulfonamide] | – | – | – | – | – | – | – | – | 50 to 500 | > 70 | 10 to 50 | 30 to 70 | > 500 | 30 to 70 | 10 to 50 | 30 to 70
6 | CCCS(=O)(=O)Nc1cccc(-c2cn(C3CCN(C(=O)C4CCN(CC5CCN(c6ccc(C7CCC(=O)NC7=O)cn6)CC5)CC4)CC3)nc2-c2ccncc2)c1F (racemic) [Compound 6, Rac-N-{3-[1-(1-{1-[(1-{5-[(3R)-2,6-dioxopiperidin-3-yl]pyridin-2-yl}piperidin-4-yl)methyl]piperidine-4-carbonyl}piperidin-4-yl)-3-(pyridin-4-yl)-1H-pyrazol-4-yl]-2-fluorophenyl}propane-1-sulfonamide] | – | – | – | – | – | – | – | – | 10 to 50 | > 70 | > 500 | 30 to 70 | > 500 | < 30 | > 500 | 30 to 70
7 | CCCS(=O)(=O)Nc1cccc(-c2cn(C3CCN(C(=O)C4CCN(C(=O)C5CCN(c6ccc(C7CCC(=O)NC7=O)cn6)CC5)CC4)CC3)nc2-c2ccncc2)c1F (racemic) [Compound 7, Rac-N-[3-(1-{1-[1-(1-{5-[(3R)-2,6-dioxopiperidin-3-yl]pyridin-2-yl}piperidine-4-carbonyl)piperidine-4-carbonyl]piperidin-4-yl}-3-(pyridin-4-yl)-1H-pyrazol-4-yl)-2-fluorophenyl]propane-1-sulfonamide] | – | – | – | – | – | – | – | – | 10 to 50 | > 70 | 50 to 500 | 30 to 70 | > 500 | 30 to 70 | > 500 | 30 to 70
8 | CCCS(=O)(=O)Nc1cccc(-c2cn(C3CCN(C(=O)C4(C)CCN(C(=O)C5CCN(c6ccc(C7CCC(=O)NC7=O)cn6)CC5)CC4)CC3)nc2-c2ccncc2)c1F (racemic) [Compound 8, Rac-N-[3-(1-{1-[1-(1-{5-[(3R)-2,6-dioxopiperidin-3-yl]pyridin-2-yl}piperidine-4-carbonyl)-4-methylpiperidine-4-carbonyl]piperidin-4-yl}-3-(pyridin-4-yl)-1H-pyrazol-4-yl)-2-fluorophenyl]propane-1-sulfonamide] | – | – | – | – | – | – | – | – | 10 to 50 | > 70 | > 500 | 30 to 70 | > 500 | 30 to 70 | > 500 | 30 to 70
9 | CCCS(=O)(=O)Nc1cccc(-c2cn(-c3ccc(N4CCN(CC5CCN(c6ccc(C7CCC(=O)NC7=O)cc6F)CC5)CC4)cc3)nc2-c2ccncc2)c1F (racemic) [Compound 18, Rac-N-{3-[1-(4-{4-[(1-{4-[(3R)-2,6-dioxopiperidin-3-yl]-2-fluorophenyl}piperidin-4-yl)methyl]piperazin-1-yl}phenyl)-3-(pyridin-4-yl)-1H-pyrazol-4-yl]-2-fluorophenyl}propane-1-sulfonamide] | – | – | – | – | – | – | – | – | 10 to 50 | > 70 | 10 to 50 | 30 to 70 | > 500 | 30 to 70 | 10 to 50 | 30 to 70
10 | CCCS(=O)(=O)Nc1cccc(-c2cn(-c3ccc(N4CCN(CC5CCN(c6ccc(C7CCC(=O)NC7=O)c(F)c6)CC5)CC4)cc3)nc2-c2ccncc2)c1F (racemic) [Compound 19, Rac-N-{3-[1-(4-{4-[(1-{4-[(3R)-2,6-dioxopiperidin-3-yl]-3-fluorophenyl}piperidin-4-yl)methyl]piperazin-1-yl}phenyl)-3-(pyridin-4-yl)-1H-pyrazol-4-yl]-2-fluorophenyl}propane-1-sulfonamide] | – | – | – | – | – | – | – | – | 10 to 50 | > 70 | 10 to 50 | 30 to 70 | > 500 | 30 to 70 | 10 to 50 | 30 to 70
11 | CCCS(=O)(=O)Nc1cccc(-c2cn(-c3ccc(N4CCN(CC5CCN(c6ccc(C7CCC(=O)NC7=O)cc6)CC5)CC4)cc3)nc2-c2ccncc2)c1F (racemic) [Compound 21, Rac-N-{3-[1-(4-{4-[(1-{4-[(3R)-2,6-dioxopiperidin-3-yl]phenyl}piperidin-4-yl)methyl]piperazin-1-yl}phenyl)-3-(pyridin-4-yl)-1H-pyrazol-4-yl]-2-fluorophenyl}propane-1-sulfonamide] | – | – | – | – | – | – | – | – | 10 to 50 | > 70 | 10 to 50 | 30 to 70 | > 500 | 30 to 70 | > 500 | 30 to 70
